Measurements: patent publication US10344026B2, “Compositions and methods of targeting mutant K-ras” (NANTBIO, INC., priority 2017, dated 2019)

Experiments:
Type in all cases: cell-based
Panc1-G12D = test: Viability assay (CellTiterBlue, 72 hr) Panc1; details: Homo sapiens, PANC-1, GI50, CellTiterBlue, Panc1 K-Ras G12D, read-out: 72 hr Cell Viability Panc1 (G12D)
Method in brief: (§1)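 Fluorescence at Ex550/Em590, read 3 hr after CellTiterBlue addition, served as the viability signal following 72 hr compound treatment. Wells held 1000 cells, pre-incubated 18 hr at 37 °C, with 0.5% DMSO final. GI50 derived with DMSO as 100% and 100 uM tamoxifen as 0% viability.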

[1] = tested on: Ishikawa (K-Ras wild type cell line); test: Viability assay (CellTiterBlue, 72 hr) Ishikawa; details: Homo sapiens, GI50, CellTiterBlue, Ishikawa K-Ras wild-type
Method in brief: as §1

[2] = tested on: phospho-ERK in Panc1 (G12D); test: In-Cell Western phospho-ERK, Panc1; details: Homo sapiens, PANC-1, 1 h; Panc1, one hour treatment; read-out: In-Cell Western Panc1 (G12D) Erk (P)
Method in brief: (§2)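 EC50 values come from immunofluorescence quantitation of phosphorylated ERK or Akt in fixed cells exposed to compound for one hour at 0.5% DMSO. Maximal inhibition is defined by 1 uM BEZ235 for Akt and 1 uM MEK Inhibitor II for ERK.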

[3] = tested on: phospho-Akt in HCC827 (Wild-type); test: In-Cell Western phospho-Akt, HCC827; details: Homo sapiens, 1 h; HCC827, one hour treatment; read-out: In-Cell Western HCC827 (Wild-type) Akt (P)
Procedure: In-cell phosphorylation assays for Erk and Akt were performed on several of the compounds and exemplary results are shown in Table 3 below using HCC827 and A375 cell lines for wild type K-Ras and Panc1 and Panc10.05 cell lines for G12D K-Ras mutants. Results are expressed in μM and corresponding structures are shown in FIGS. 2A-2G and Examples 1-152, above.
Cells are seeded in complete medium into black sided, clear-bottom 384-well microplates at 3000 cells/[…]/well. Plates are returned to 37° C. CO2 incubator for 18 hr. Drug is made as 200× in DMSO and diluted into medium to 10×. To each well is added 4 ul 10× test article or controls, and plates are returned to the incubator. Final assay DMSO concentration is 0.5%. After one hour, cells are fixed in formaldehyde, rinsed & permeabilized with triton X-100, and blocked with BSA/Goat serum blocking solution. Primary phospho-Akt and phospho-ERK antibodies are added and plates are incubated overnight at 4° C. Plates are rinsed with Tween-20 wash buffer and secondary antibody (Goat anti-rabbit, Thermofisher) is added. After 2 hours, plates are rinsed in Tween-20 wash buffer, and then PBS. Plates are imaged on the Celigo (Nexcelom) and cellular fluorescence is quantitated. Full inhibition of phospho-Akt is achieved with 1 uM BEZ235 (Sellekchem), while full inhibition of phospho-ERK is achieved with 1 uM MEK Inhibitor II Calbiochem). EC50 values are calculated using Graphpad Prism.

[4] = tested on: U87-MG (K-Ras wild type cell line); test: Viability assay (CellTiterBlue, 72 hr) U87-MG; details: Homo sapiens, U-87 MG, GI50, CellTiterBlue, U87-MG K-Ras wild-type
Method in brief: as §1

[5] = tested on: HCC827 (K-Ras wild type cell line); test: Viability assay (CellTiterBlue, 72 hr) HCC827; details: Homo sapiens, GI50, CellTiterBlue, HCC827 K-Ras wild-type
Method in brief: as §1

HCT116-G31D = test: Viability assay (CellTiterBlue, 72 hr) HCT116; details: Homo sapiens, HCT-116, GI50, CellTiterBlue, HCT116 K-Ras G13D, read-out: 72 hr Cell Viability HCT116 (G13D)
Method in brief: as §1

Panc10.05-G12D = test: Viability assay (CellTiterBlue, 72 hr) Panc10.05; details: Homo sapiens, Panc1005, GI50, CellTiterBlue, Panc10.05 K-Ras G12D, read-out: 72 hr Cell Viability Panc10.05 (G12D)
Method in brief: as §1

[6] = tested on: phospho-ERK in HCC827 (Wild-type); test: In-Cell Western phospho-ERK, HCC827; details: Homo sapiens, 1 h; HCC827, one hour treatment; read-out: In-Cell Western HCC827 (Wild-type) Erk (P)
Method in brief: as §2

[7] = tested on: phospho-Akt in Panc1 (G12D); test: In-Cell Western phospho-Akt, Panc1; details: Homo sapiens, PANC-1, 1 h; Panc1, one hour treatment; read-out: In-Cell Western Panc1 (G12D) Akt (P)
Method in brief: as §2

[8] = tested on: phospho-ERK in Panc10.05 (G12D); test: In-Cell Western phospho-ERK, Panc10.05; details: Homo sapiens, Panc1005, 1 h; Panc10.05, one hour treatment; read-out: In-Cell Western Panc10.05 (G12D) Erk (P)
Method in brief: as §2

K-Ras G12D = target: T1, K-Ras G12D (Homo sapiens, UniProt P01116, G12D); test: G-LISA Ras activation, 293H cells transfected with G12D mutant; details: compound 1 hour
T1 construct: expressed in transfected cells; host or cells: 293H cells
T1 sequence (P01116 whole entry G12D): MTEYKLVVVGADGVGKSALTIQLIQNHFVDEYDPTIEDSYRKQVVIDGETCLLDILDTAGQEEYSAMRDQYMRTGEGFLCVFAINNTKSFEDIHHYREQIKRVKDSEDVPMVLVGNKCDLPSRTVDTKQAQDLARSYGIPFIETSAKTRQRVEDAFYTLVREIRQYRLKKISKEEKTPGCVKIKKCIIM
Method in brief: (§3)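 Active Ras was quantified by G-LISA in lysates of 293H cells made the day after transfection with wild-type, G12D or G12V Ras plasmid (5 μg). Compounds were applied at 3.125-25 μM for 1 h; only the wild-type cells got a 2-min 100 ng/ml EGF pulse before lysis.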

wild type K-Ras = target: T2, wild type K-Ras (Homo sapiens, UniProt P01116); test: G-LISA Ras activation, 293H cells transfected with Ras wild-type, EGF stimulated; details: compound 1 hour, then 100 ng/ml EGF 2 minutes
T2 construct: expressed in transfected cells; host or cells: 293H cells
T2 sequence (P01116 whole entry): as the sequence (P01116 whole entry G12D) above, with D12G counted along it
Method in brief: as §3

[9] = tested on: phospho-ERK in A375 (Wild-type); test: In-Cell Western phospho-ERK, A375; details: Homo sapiens, A-375, 1 h; A375, one hour treatment; read-out: In-Cell Western A375 (Wild-type) Erk (P)
Method in brief: as §2

[10] = tested on: phospho-Akt in Panc10.05 (G12D); test: In-Cell Western phospho-Akt, Panc10.05; details: Homo sapiens, Panc1005, 1 h; Panc10.05, one hour treatment; read-out: In-Cell Western Panc10.05 (G12D) Akt (P)
Method in brief: as §2

[11] = tested on: A375 (K-Ras wild type cell line); test: Viability assay (CellTiterBlue, 72 hr) A375; details: Homo sapiens, A-375, GI50, CellTiterBlue
Method in brief: as §1

[12] = tested on: phospho-Akt in A375 (Wild-type); test: In-Cell Western phospho-Akt, A375; details: Homo sapiens, A-375, 1 h; A375, one hour treatment; read-out: In-Cell Western A375 (Wild-type) Akt (P)
Method in brief: as §2

## Cn1cc(C(=O)Nc2nc(-c3ccc4c(c3)CCC(=O)N4)cs2)c(C(C)(C)C)n1 [Compound 38, 3-(tert-butyl)-1-methyl-N-(4-(2-oxo-1,2,3,4-tetrahydroquinolin-6-yl)thiazol-2-yl)-1H-pyrazole-4-carboxamide]
Panc1-G12D
  IC50: > 25 µM
[1]
  IC50: 7 µM
[2]
  EC50: > 25 µM
[3]
  EC50: > 25 µM
[4]
  IC50: > 25 µM
[5]
  IC50: > 25 µM
HCT116-G31D
  IC50: > 25 µM
Panc10.05-G12D
  IC50: 7 µM
[6]
  EC50: 13 µM
[7]
  EC50: 24 µM

## COC(=O)CCN1C(=O)CCc2cc(-c3csc(NC(=O)c4oc(C)nc4C)n3)ccc21 [Compound 99, methyl 3-(6-(2-(2,4-dimethyloxazole-5-carboxamido)thiazol-4-yl)-2-oxo-3,4-dihydroquinoiolin-1 (2H)-yl)propanoate]
Panc1-G12D
  IC50: 6 µM
[1]
  IC50: 4 µM
[8]
  EC50: 5 µM
K-Ras G12D
  IC50: 6.7 µM
Wild type K-Ras
  IC50: 10.2 µM
[2]
  EC50: 14 µM
[9]
  EC50: > 25 µM
[10]
  EC50: 10 µM
[11]
  IC50: 6 µM
[4]
  IC50: > 25 µM
[5]
  IC50: > 25 µM
HCT116-G31D
  IC50: > 25 µM
Panc10.05-G12D
  IC50: 6 µM
[12]
  EC50: > 25 µM
[6]
  EC50: 5 µM
[7]
  EC50: > 25 µM

## Cc1nc(C)c(C(=O)Nc2nc(-c3ccc4c(c3)CCC(=O)N4C3CCCC3)cs2)o1 [Compound 69, N-(4-(1-cyclopentyl-2-oxo-1,2,3,4-tetrahydroquinolin-6-yl)thiazol-2-yl)-2,4-dimethyloxazole-5-carboxamide]
Panc1-G12D
  IC50: 7 µM
[1]
  IC50: > 25 µM
[8]
  EC50: 2 µM
K-Ras G12D
  IC50: 8.1 µM
Wild type K-Ras
  IC50: 18.6 µM
[2]
  EC50: 8 µM
[9]
  EC50: 3 µM
[10]
  EC50: 17 µM
[11]
  IC50: > 25 µM
[4]
  IC50: > 25 µM
[5]
  IC50: 2 µM
HCT116-G31D
  IC50: 2 µM
Panc10.05-G12D
  IC50: 3 µM
[12]
  EC50: 2 µM
[6]
  EC50: 5 µM
[7]
  EC50: 6 µM

## COc1cccc(CN2C(=O)CCc3cc(-c4csc(NC(=O)c5oc(C)nc5C)n4)ccc32)c1OC [Compound 93, N-(4-(1-(2,3-dimethoxybenzyl)-2-oxo-1,2,3,4-tetrahydroquinolin-6-yl)thiazol-2-yl)-2,4-dimethyloxazole-5-carboxamide]
Panc1-G12D
  IC50: 9 µM
[1]
  IC50: > 25 µM
[8]
  EC50: 1.2 µM
K-Ras G12D
  IC50: 8.6 µM
Wild type K-Ras
  IC50: 10 µM
[2]
  EC50: 8 µM
[9]
  EC50: > 25 µM
[10]
  EC50: 15 µM
[11]
  IC50: > 25 µM
[4]
  IC50: > 25 µM
[5]
  IC50: > 25 µM
HCT116-G31D
  IC50: 4 µM
Panc10.05-G12D
  IC50: 5 µM
[12]
  EC50: > 25 µM
[6]
  EC50: > 25 µM
[7]
  EC50: 6 µM

## COC(=O)CCCN1C(=O)CCc2cc(-c3csc(NC(=O)c4oc(C)nc4C)n3)ccc21 [Compound 100, methyl 4-(6-(2-(2,4-dimethyloxazole-5-carboxamido)thiazol-4-yl)-2-oxo-3,4-dihydroquinolin-1 (2H)-yl)butanoate]
Panc1-G12D
  IC50: 5 µM
[1]
  IC50: 3 µM
[8]
  EC50: 3 µM
K-Ras G12D
  IC50: 5.5 µM
Wild type K-Ras
  IC50: 9.5 µM
[2]
  EC50: 17 µM
[9]
  EC50: 4 µM
[10]
  EC50: 7 µM
[11]
  IC50: 4 µM
[4]
  IC50: > 25 µM
[5]
  IC50: > 25 µM
HCT116-G31D
  IC50: > 25 µM
Panc10.05-G12D
  IC50: 5 µM
[12]
  EC50: 5 µM
[6]
  EC50: 3 µM
[7]
  EC50: 25 µM

## Cc1nc(C(C)C)oc1C(=O)Nc1nc(-c2ccc3c(c2)CCC(=O)N3Cc2cccnc2)cs1 [Compound 91]
Panc1-G12D
  IC50: 5 µM
[1]
  IC50: > 25 µM
[8]
  EC50: 1.4 µM
K-Ras G12D
  IC50: 8.4 µM
Wild type K-Ras
  IC50: 11.7 µM
[2]
  EC50: 8 µM
[9]
  EC50: 5 µM
[10]
  EC50: 12 µM
[11]
  IC50: > 25 µM
[4]
  IC50: > 25 µM
[5]
  IC50: 3 µM
HCT116-G31D
  IC50: 1.5 µM
Panc10.05-G12D
  IC50: 2 µM
[12]
  EC50: 5 µM
[6]
  EC50: 11 µM
[7]
  EC50: 4 µM

## Cc1nc(C(C)C)sc1C(=O)Nc1nc(-c2ccc3c(c2)CCC(=O)N3Cc2cccnc2)cs1 [Compound 107, 2-isopropyl-4-methyl-N-(4-(2-oxo-1-(pyridin-3-ylmethyl)-1,2,3,4-tetrahydroquinolin-6-yl)thiazol-2-yl)thiazole-5-carboxamide]
Panc1-G12D
  IC50: > 25 µM
[1]
  IC50: > 25 µM
[8]
  EC50: 10 µM
K-Ras G12D
  IC50: 6.6 µM
Wild type K-Ras
  IC50: 9.7 µM
[2]
  EC50: 6 µM
[9]
  EC50: 16 µM
[10]
  EC50: > 25 µM
[11]
  IC50: 19 µM
[4]
  IC50: > 25 µM
[5]
  IC50: > 25 µM
HCT116-G31D
  IC50: 6 µM
Panc10.05-G12D
  IC50: 2 µM
[12]
  EC50: > 25 µM
[6]
  EC50: 6 µM
[7]
  EC50: > 25 µM

## Cc1nn(C)cc1C(=O)Nc1nc(-c2ccc3c(c2)CCC(=O)N3Cc2cccnc2)cs1 [Compound 112, 1,3-dimethyl-N-(4-(2-oxo-1-(pyridin-3-ylmethyl)-1,2,3,4-tetrahydroquinolin-6-yl)thiazol-2-yl)-1H-pyrazole-4-carboxamide]
Panc1-G12D
  IC50: 5 µM
[1]
  IC50: > 25 µM
[8]
  EC50: 1 µM
K-Ras G12D
  IC50: 10 µM
Wild type K-Ras
  IC50: 10.7 µM
[2]
  EC50: 4 µM
[9]
  EC50: 8 µM
[10]
  EC50: 18 µM
[11]
  IC50: > 25 µM
[4]
  IC50: > 25 µM
[5]
  IC50: 4 µM
HCT116-G31D
  IC50: 2 µM
Panc10.05-G12D
  IC50: 3 µM
[12]
  EC50: 11 µM
[6]
  EC50: 17 µM
[7]
  EC50: 5 µM

## COCCN1C(=O)CCc2cc(-c3csc(NC(=O)c4oc(C)nc4C)n3)ccc21 [Compound 95, N-(4-(1-(2-methoxyethyl)-2-oxo-1,2,3,4-tetrahydroquinolin-6-yl)thiazol-2-yl)-2,4-dimethyloxazole-5-carboxamide]
Panc1-G12D
  IC50: 7 µM
[1]
  IC50: > 25 µM
[8]
  EC50: 2 µM
K-Ras G12D
  IC50: 5.1 µM
Wild type K-Ras
  IC50: 15.4 µM
[2]
  EC50: 10 µM
[9]
  EC50: > 25 µM
[10]
  EC50: 14 µM
[11]
  IC50: > 25 µM
[4]
  IC50: > 25 µM
[5]
  IC50: 5 µM
HCT116-G31D
  IC50: 4 µM
Panc10.05-G12D
  IC50: 4 µM
[12]
  EC50: > 25 µM
[6]
  EC50: 10 µM
[7]
  EC50: 6 µM
